# Results from PubChem BioAssay (NCI).
#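 Five concentrations, 48 hours, 96-well plates. GI50: concentration for 50% inhibition of growth. At the TGI there is no net growth.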
# Experiments:
# Experiment in all cases: inhibition of tumour cell growth, NCI panel, 48 h
# UO-31 renal = tested on: UO-31 renal
# CCRF-CEM leukemia = tested on: CCRF-CEM leukemia
# UACC-257 melanoma = tested on: UACC-257 melanoma
# SK-MEL-28 melanoma = tested on: SK-MEL-28 melanoma
# SK-OV-3 ovarian = tested on: SK-OV-3 ovarian
# SK-MEL-5 melanoma = tested on: SK-MEL-5 melanoma
# SW-620 colon = tested on: SW-620 colon
# SN12C renal = tested on: SN12C renal
# T-47D breast = tested on: T-47D breast
# NCI-H522 lung = tested on: NCI-H522 lung
# HS 578T breast = tested on: HS 578T breast
# PC-3 prostate = tested on: PC-3 prostate
# HT29 colon = tested on: HT29 colon
# 786-0 renal = tested on: 786-0 renal
# MOLT-4 leukemia = tested on: MOLT-4 leukemia
# SF-539 CNS = tested on: SF-539 CNS
# IGROV1 ovarian = tested on: IGROV1 ovarian
# OVCAR-8 ovarian = tested on: OVCAR-8 ovarian
# EKVX NSCLC = tested on: EKVX NSCLC
# HCT-15 colon = tested on: HCT-15 colon
# BT-549 breast = tested on: BT-549 breast
# SNB-19 CNS = tested on: SNB-19 CNS
# ACHN renal = tested on: ACHN renal
# HOP-92 NSCLC = tested on: HOP-92 NSCLC
# SK-MEL-2 melanoma = tested on: SK-MEL-2 melanoma
# M14 melanoma = tested on: M14 melanoma
# UACC-62 melanoma = tested on: UACC-62 melanoma
# OVCAR-4 ovarian = tested on: OVCAR-4 ovarian
# RPMI-8226 leukemia = tested on: RPMI-8226 leukemia
# SR leukemia = tested on: SR leukemia
# MDA-MB-435 = tested on: MDA-MB-435
# NCI-H460 lung = tested on: NCI-H460 lung
# CAKI-1 renal = tested on: CAKI-1 renal
# OVCAR-5 ovarian = tested on: OVCAR-5 ovarian
# DU-145 prostate = tested on: DU-145 prostate
# HOP-62 NSCLC = tested on: HOP-62 NSCLC
# MDA-MB-231 breast = tested on: MDA-MB-231 breast
# HCT-116 colon = tested on: HCT-116 colon
# TK-10 renal = tested on: TK-10 renal
# COLO 205 colon = tested on: COLO 205 colon
# HCC-2998 colon = tested on: HCC-2998 colon
# NCI/ADR-RES ovarian = tested on: NCI/ADR-RES ovarian
# HL-60(TB) leukemia = tested on: HL-60(TB) leukemia
# MALME-3M melanoma = tested on: MALME-3M melanoma
# SNB-75 CNS = tested on: SNB-75 CNS
# SF-268 CNS = tested on: SF-268 CNS
# U251 CNS = tested on: U251 CNS
# K-562 leukemia = tested on: K-562 leukemia
# NCI-H23 lung = tested on: NCI-H23 lung
# LOX IMVI melanoma = tested on: LOX IMVI melanoma
# KM12 colon = tested on: KM12 colon
# SF-295 CNS = tested on: SF-295 CNS
# OVCAR-3 ovarian = tested on: OVCAR-3 ovarian
# MCF7 breast = tested on: MCF7 breast
# A549 NSCLC = tested on: A549 NSCLC
# NCI-H226 lung = tested on: NCI-H226 lung
# A498 renal = tested on: A498 renal
structure (smiles),measurement,setting,value
C[C@H](Nc1ncnc2ccc(-c3cnc(Cl)c(NS(C)(=O)=O)c3)cc12)c1ccccc1,GI50,UO-31 renal,0.284 µM
same,TGI,UO-31 renal,4.85 µM
same,GI50,CCRF-CEM leukemia,5.46 µM
same,TGI,CCRF-CEM leukemia,> 100 µM
same,GI50,UACC-257 melanoma,1.97 µM
same,TGI,UACC-257 melanoma,13.4 µM
same,GI50,SK-MEL-28 melanoma,0.491 µM
same,TGI,SK-MEL-28 melanoma,6.77 µM
same,GI50,SK-OV-3 ovarian,1.61 µM
same,TGI,SK-OV-3 ovarian,7.72 µM
same,GI50,SK-MEL-5 melanoma,1.04 µM
same,TGI,SK-MEL-5 melanoma,2.21 µM
same,GI50,SW-620 colon,2 µM
same,TGI,SW-620 colon,11.3 µM
same,GI50,SN12C renal,0.773 µM
same,TGI,SN12C renal,27.8 µM
same,GI50,T-47D breast,0.175 µM
same,TGI,T-47D breast,2.41 µM
same,GI50,NCI-H522 lung,2.9 µM
same,TGI,NCI-H522 lung,19.4 µM
same,GI50,HS 578T breast,0.199 µM
same,TGI,HS 578T breast,0.862 µM
same,GI50,PC-3 prostate,0.806 µM
same,TGI,PC-3 prostate,37.1 µM
same,GI50,HT29 colon,2.36 µM
same,TGI,HT29 colon,19.7 µM
same,GI50,786-0 renal,1.14 µM
same,TGI,786-0 renal,7.48 µM
same,GI50,MOLT-4 leukemia,4.33 µM
same,TGI,MOLT-4 leukemia,> 100 µM
same,GI50,SF-539 CNS,1.13 µM
same,TGI,SF-539 CNS,3.87 µM
same,GI50,IGROV1 ovarian,0.278 µM
same,TGI,IGROV1 ovarian,1.5 µM
same,GI50,OVCAR-8 ovarian,2.27 µM
same,TGI,OVCAR-8 ovarian,16 µM
same,GI50,EKVX NSCLC,1.2 µM
same,TGI,EKVX NSCLC,4.36 µM
same,GI50,HCT-15 colon,0.766 µM
same,TGI,HCT-15 colon,11.2 µM
same,GI50,BT-549 breast,0.272 µM
same,TGI,BT-549 breast,2.05 µM
same,GI50,SNB-19 CNS,1.18 µM
same,TGI,SNB-19 CNS,9.94 µM
same,GI50,ACHN renal,2.18 µM
same,TGI,ACHN renal,> 100 µM
same,GI50,HOP-92 NSCLC,0.28 µM
same,TGI,HOP-92 NSCLC,4.84 µM
same,GI50,SK-MEL-2 melanoma,1.52 µM
same,TGI,SK-MEL-2 melanoma,3.5 µM
same,GI50,M14 melanoma,1.57 µM
same,TGI,M14 melanoma,12.6 µM
same,GI50,UACC-62 melanoma,0.379 µM
same,TGI,UACC-62 melanoma,2.16 µM
same,GI50,OVCAR-4 ovarian,1.58 µM
same,TGI,OVCAR-4 ovarian,11.7 µM
same,GI50,RPMI-8226 leukemia,4.29 µM
same,TGI,RPMI-8226 leukemia,> 100 µM
same,GI50,SR leukemia,2.1 µM
same,TGI,SR leukemia,> 100 µM
same,GI50,MDA-MB-435,1.27 µM
same,TGI,MDA-MB-435,10.7 µM
same,GI50,NCI-H460 lung,1.39 µM
same,TGI,NCI-H460 lung,13.5 µM
same,GI50,CAKI-1 renal,1.11 µM
same,TGI,CAKI-1 renal,8.21 µM
same,GI50,OVCAR-5 ovarian,1.37 µM
same,TGI,OVCAR-5 ovarian,11.4 µM
same,GI50,DU-145 prostate,2.73 µM
same,TGI,DU-145 prostate,28.4 µM
same,GI50,HOP-62 NSCLC,1.3 µM
same,TGI,HOP-62 NSCLC,21 µM
same,GI50,MDA-MB-231 breast,1.03 µM
same,TGI,MDA-MB-231 breast,2.7 µM
same,GI50,HCT-116 colon,1.68 µM
same,TGI,HCT-116 colon,6.12 µM
same,GI50,TK-10 renal,1.91 µM
same,TGI,TK-10 renal,21.5 µM
same,GI50,COLO 205 colon,2.29 µM
same,TGI,COLO 205 colon,7.61 µM
same,GI50,HCC-2998 colon,0.924 µM
same,TGI,HCC-2998 colon,6.86 µM
same,GI50,NCI/ADR-RES ovarian,4.76 µM
same,TGI,NCI/ADR-RES ovarian,19.7 µM
same,GI50,HL-60(TB) leukemia,9.47 µM
same,TGI,HL-60(TB) leukemia,> 100 µM
same,GI50,MALME-3M melanoma,0.242 µM
same,TGI,MALME-3M melanoma,1.88 µM
same,GI50,SNB-75 CNS,0.257 µM
same,TGI,SNB-75 CNS,4.83 µM
same,GI50,SF-268 CNS,1.11 µM
same,TGI,SF-268 CNS,10.4 µM
same,GI50,U251 CNS,1.05 µM
same,TGI,U251 CNS,30.7 µM
same,GI50,K-562 leukemia,7.97 µM
same,TGI,K-562 leukemia,> 100 µM
same,GI50,NCI-H23 lung,1.07 µM
same,TGI,NCI-H23 lung,5.18 µM
same,GI50,LOX IMVI melanoma,0.344 µM
same,TGI,LOX IMVI melanoma,1.89 µM
same,GI50,KM12 colon,2.3 µM
same,TGI,KM12 colon,11.8 µM
same,GI50,SF-295 CNS,0.971 µM
same,TGI,SF-295 CNS,4.14 µM
same,GI50,OVCAR-3 ovarian,0.627 µM
same,TGI,OVCAR-3 ovarian,2.94 µM
same,GI50,MCF7 breast,0.277 µM
same,TGI,MCF7 breast,10.6 µM
same,GI50,A549 NSCLC,3.17 µM
same,TGI,A549 NSCLC,15.7 µM
same,GI50,NCI-H226 lung,0.943 µM
same,TGI,NCI-H226 lung,8.41 µM
same,GI50,A498 renal,0.269 µM
same,TGI,A498 renal,2.3 µM
